Experimental data taken from ChEMBL document CHEMBL1201862, “PubChem BioAssay data set” (2004).
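In this assay, cells in 96-well plates receive the compound at five concentrations for 48 hours. Endpoints are linearly interpolated between the surrounding concentrations. GI50 is the concentration that inhibits growth by half.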 Calls of active or inactive are those of the source. Rule as the data show it: active = GI50 up to about 1.1 µM and inactive = higher.

How the values were obtained:
Experiment in all cases: NCI-60 cell line screen, 48 h
IGROV-1 = tested on: IGROV-1
KM-20L2 = tested on: KM-20L2
COLO 205 = tested on: COLO 205
XF498 = tested on: XF498
DLD-1 = tested on: DLD-1
ACHN = tested on: ACHN
OVCAR-3 = tested on: OVCAR-3
LOX IMVI = tested on: LOX IMVI
LXFL 529 = tested on: LXFL 529
HCT-116 = tested on: HCT-116
SK-MEL-5 = tested on: SK-MEL-5
UACC-257 = tested on: UACC-257
HCT-15 = tested on: HCT-15
M19-MEL = tested on: M19-MEL
SNB-19 = tested on: SNB-19
KM12 = tested on: KM12
OVCAR-5 = tested on: OVCAR-5
NCI-H226 = tested on: NCI-H226
OVCAR-4 = tested on: OVCAR-4
NCI-H460 = tested on: NCI-H460
MOLT-4 = tested on: MOLT-4
SF-539 = tested on: SF-539
SNB-78 = tested on: SNB-78
SF-268 = tested on: SF-268
CCRF-CEM = tested on: CCRF-CEM
Malme-3M = tested on: Malme-3M
UO-31 = tested on: UO-31
UACC-62 = tested on: UACC-62
HOP-92 = tested on: HOP-92
K562 = tested on: K562
OVCAR-8 = tested on: OVCAR-8
HL-60 = tested on: HL-60
A549 = tested on: A549
SK-MEL-28 = tested on: SK-MEL-28
DMS-273 = tested on: DMS-273
M14 = tested on: M14
SN12C = tested on: SN12C
SK-MEL-2 = tested on: SK-MEL-2
HCC 2998 = tested on: HCC 2998
DMS-114 = tested on: DMS-114
SF-295 = tested on: SF-295
HT-29 = tested on: HT-29
RPMI-8226 = tested on: RPMI-8226
EKVX = tested on: EKVX
U-251 = tested on: U-251
CAKI-1 = tested on: CAKI-1
786-0 = tested on: 786-0
SW-620 = tested on: SW-620
A498 = tested on: A498
RXF 393 = tested on: RXF 393
SK-OV-3 = tested on: SK-OV-3
SNB-75 = tested on: SNB-75
TK-10 = tested on: TK-10
NCI-H522 = tested on: NCI-H522
SR = tested on: SR
NCI-H23 = tested on: NCI-H23
HOP-62 = tested on: HOP-62

Measured: GI50

CC(=O)Nc1[nH]c(=O)[nH]c(=O)c1N(C(C)=O)C(C)=O
> 100 µM: HCT-15
inactive: IGROV-1 > 100 µM | KM-20L2 > 100 µM | COLO 205 > 100 µM | XF498 > 100 µM | DLD-1 > 100 µM | ACHN > 100 µM | OVCAR-3 > 100 µM | LOX IMVI > 100 µM | LXFL 529 > 100 µM | HCT-116 > 100 µM | SK-MEL-5 > 100 µM | UACC-257 > 100 µM | M19-MEL > 100 µM | SNB-19 > 100 µM | KM12 > 100 µM | OVCAR-5 > 100 µM | NCI-H226 > 100 µM | OVCAR-4 > 100 µM | NCI-H460 > 100 µM | MOLT-4 > 100 µM | SF-539 > 100 µM | SNB-78 > 100 µM | SF-268 > 100 µM | CCRF-CEM > 100 µM | Malme-3M > 100 µM | UO-31 > 100 µM | UACC-62 > 100 µM | HOP-92 > 100 µM | K562 > 100 µM | OVCAR-8 > 100 µM | HL-60 > 100 µM | A549 > 100 µM | SK-MEL-28 > 100 µM | DMS-273 > 100 µM | M14 > 100 µM | SN12C > 100 µM | SK-MEL-2 > 100 µM | HCC 2998 > 100 µM | DMS-114 > 100 µM | SF-295 > 100 µM | HT-29 > 100 µM | RPMI-8226 > 100 µM | EKVX > 100 µM | U-251 > 100 µM | CAKI-1 > 100 µM | 786-0 > 100 µM | SW-620 > 100 µM | A498 > 100 µM | RXF 393 > 100 µM

CCCCN(CCCC)CC(C(=O)Nc1ccccc1)/C(C)=N\NC(=O)c1ccncc1 (configuration not stated)
> 100 µM: HCT-15
inactive: IGROV-1 > 100 µM | KM-20L2 > 100 µM | SK-OV-3 > 100 µM | COLO 205 > 100 µM | XF498 > 100 µM | DLD-1 > 100 µM | ACHN > 100 µM | OVCAR-3 64.7 µM | LOX IMVI 81.5 µM | HCT-116 92 µM | SK-MEL-5 > 100 µM | UACC-257 > 100 µM | M19-MEL 68.9 µM | SNB-19 > 100 µM | KM12 > 100 µM | OVCAR-5 > 100 µM | NCI-H226 > 100 µM | OVCAR-4 > 100 µM | NCI-H460 46 µM | MOLT-4 > 100 µM | SNB-75 16.9 µM | TK-10 > 100 µM | SF-539 > 100 µM | NCI-H522 > 100 µM | SNB-78 > 100 µM | SF-268 > 100 µM | Malme-3M > 100 µM | UO-31 28.5 µM | SR > 100 µM | UACC-62 59.3 µM | HOP-92 > 100 µM | K562 > 100 µM | OVCAR-8 > 100 µM | HL-60 98.2 µM | A549 > 100 µM | SK-MEL-28 > 100 µM | DMS-273 > 100 µM | M14 > 100 µM | SN12C > 100 µM | HCC 2998 > 100 µM | NCI-H23 > 100 µM | DMS-114 63 µM | SF-295 > 100 µM | HT-29 > 100 µM | RPMI-8226 > 100 µM | U-251 > 100 µM | CAKI-1 > 100 µM | 786-0 > 100 µM | SW-620 > 100 µM | HOP-62 > 100 µM | RXF 393 > 100 µM

COc1ccc(Cc2nccc3cc(OC)c(OC)cc23)cc1
57.3 µM: HCT-15
inactive: IGROV-1 95.1 µM | KM-20L2 > 100 µM | SK-OV-3 > 100 µM | COLO 205 > 100 µM | XF498 23.8 µM | DLD-1 > 100 µM | ACHN 43.3 µM | OVCAR-3 50.4 µM | LXFL 529 28 µM | HCT-116 57.4 µM | SK-MEL-5 35.7 µM | UACC-257 16.4 µM | M19-MEL 98.4 µM | SNB-19 54.6 µM | KM12 81.5 µM | OVCAR-5 40.4 µM | OVCAR-4 36.5 µM | NCI-H460 90.6 µM | MOLT-4 39.4 µM | SNB-75 33.1 µM | TK-10 > 100 µM | SF-539 > 100 µM | NCI-H522 37.8 µM | SNB-78 > 100 µM | SF-268 65.5 µM | CCRF-CEM 65.6 µM | Malme-3M > 100 µM | UO-31 16.9 µM | UACC-62 42.2 µM | K562 48 µM | OVCAR-8 91.8 µM | A549 > 100 µM | SK-MEL-28 > 100 µM | M14 > 100 µM | SN12C 36.9 µM | SK-MEL-2 > 100 µM | HCC 2998 > 100 µM | NCI-H23 37.2 µM | DMS-114 29.7 µM | SF-295 32.4 µM | HT-29 67.9 µM | RPMI-8226 20.9 µM | EKVX > 100 µM | U-251 > 100 µM | CAKI-1 33 µM | 786-0 > 100 µM | SW-620 > 100 µM | A498 42.2 µM | HOP-62 > 100 µM
